Like-named read-outs stand apart in the source and are kept apart here.
Columns and labels:
[1] = target: T1, K103N/Y181C double mutant RT (HIV-1 RT) (Human immunodeficiency virus type 1 group M subtype B, UniProt P03366, K702N/Y780C); experiment: biochemical
T1 construct: mutations that occur in the reverse transcriptase segment of the pol gene
Description: (§1) Based upon testing of these compounds, as described below, it is known that they inhibit the RNA-dependent DNA polymerase activity of HIV-1 RT. […] Utilising the Reverse Transcriptase (RT) Assay described below, compounds can be tested for their ability to inhibit the RNA-dependent DNA polymerase activity of HIV-1 RT. Certain specific compounds described in the Examples which appear below, were so tested. The results of this testing appear in Table 4 as IC50 (nM) and Table 5 as EC50 (nM).
(§2) Reverse TranscriptASE (RT) Assays
(§3) The assays are as described in WO 01/96338A1, the contents of which are hereby incorporated herein. The results are listed in Tables 8 as IC50(nM) and EC50(nM).

[2] = target: T2, V106A mutant RT (HIV-1 RT) (Human immunodeficiency virus type 1 group M subtype B, UniProt P03366, V705A); experiment: biochemical
T2 construct: mutations that occur in the reverse transcriptase segment of the pol gene
Description: as §1, §2, §3

WT RT (HIV-1 RT) = target: T3, WT RT (HIV-1 RT) (Human immunodeficiency virus type 1 group M subtype B, UniProt P03366); experiment: biochemical
T3 construct: mutations that occur in the reverse transcriptase segment of the pol gene
Description: as §1, §2, §3

[3] = target: T4, Y188L mutant RT (HIV-1 RT) (Human immunodeficiency virus type 1 group M subtype B, UniProt P03366, Y787L); experiment: biochemical
T4 construct: mutations that occur in the reverse transcriptase segment of the pol gene
Description: as §1, §2, §3

[4] = test system: WT RT (HIV-1 wild type strain); experiment: EC50 assay, WT RT strain; type: cell-based
Description: as §2, §3

[5] = test system: K103N/Y181C (HIV-1 double mutant strain); experiment: EC50 assay, K103N/Y181C strain; type: cell-based
Description: as §2, §3

[6] = Human immunodeficiency virus 1, read-out: EC50 WT RT (nM)
[7] = Human immunodeficiency virus 1, read-out: EC50 K103N/Y181C (nM), K103N/Y181C double mutant

SMILES | IC50 [1] [nM] | IC50 ([2]; IC50 V106A (nM)) [nM] | IC50 (WT RT (HIV-1 RT)) [nM] | IC50 ([3]; IC50 Y188L (nM)) [nM] | EC50 [4, 6] [nM] | EC50 [5, 7] [nM] | IC50 ([1]; K103N/Y181C double mutant RT, read-out: IC50 K103N/Y181C) [nM] | IC50 ([2]; read-out: IC50 V106A) [nM] | IC50 (WT RT (HIV-1 RT); wild type RT, read-out: IC50 WT RT) [nM] | IC50 ([3]; read-out: IC50 Y188L) [nM] | EC50 ([4]; wild type, read-out: EC50 WT RT) [nM] | EC50 ([5]; K103N/Y181C double mutant, read-out: EC50 K103N/Y181C) [nM] | IC50 ([1]; read-out: IC50 K103N/Y181C, K103N/Y181C double mutant RT) [nM] | IC50 (WT RT (HIV-1 RT); read-out: IC50 WT RT, wild type RT) [nM] | EC50 ([4]; read-out: EC50 WT RT, wild type) [nM] | EC50 ([5]; read-out: EC50 K103N/Y181C, K103N/Y181C double mutant) [nM]
CCN1c2ncc(CCOc3ccc(/C=C/C(=O)O)c4ccccc34)cc2C(=O)N(C)c2ccc(C)nc21 [Entry 1033] | 100 to 1000 | 100 to 1000 | < 100 | 100 to 1000 | < 100 | < 100 |  |  |  |  |  |  |  |  |  | 
CCN1c2ncc(CCOc3ccc(/C=C/C(=O)O)c4ccccc34)cc2C(=O)Nc2c(C)cc(F)nc21 [Entry 1034] | 100 to 1000 | < 100 | < 100 | > 1000 | < 100 | < 100 |  |  |  |  |  |  |  |  |  | 
CCN1c2ncc(CCOc3ccc(/C=C(\C)C(=O)O)c4ccccc34)cc2C(=O)N(C)c2cccnc21 [Entry 1035] | 100 to 1000 | > 1000 | < 100 | > 1000 | < 100 | < 100 |  |  |  |  |  |  |  |  |  | 
CCN1c2ncc(CCOc3ccc(/C=C(\C)C(=O)O)c4ccccc34)cc2C(=O)N(C)c2ccc(Cl)nc21 [Entry 1036] | 100 to 1000 | 100 to 1000 | < 100 | > 1000 | < 100 | < 100 |  |  |  |  |  |  |  |  |  | 
CCN1c2ncc(CCOc3ccc(/C=C(\C)C(=O)O)c4ccccc34)cc2C(=O)N(C)c2ccc(F)nc21 [Entry 1037] | 100 to 1000 | > 1000 | < 100 | > 1000 | < 100 | < 100 |  |  |  |  |  |  |  |  |  | 
CCN1c2ncc(CCOc3ccc(/C=C(\C)C(=O)O)c4ccccc34)cc2C(=O)N(C)c2ccc(C)nc21 [Entry 1038] | 100 to 1000 | > 1000 | < 100 | > 1000 | < 100 | < 100 |  |  |  |  |  |  |  |  |  | 
CCN1c2ncc(CCOc3ccc(/C=C(\C)C(=O)O)c4ccccc34)cc2C(=O)Nc2c(C)cc(Cl)nc21 [Entry 1040] | 100 to 1000 | 100 to 1000 | < 100 | > 1000 | < 100 | 100 to 1000 |  |  |  |  |  |  |  |  |  | 
CCN1c2ncc(CCOc3ccc(CC(C)C(=O)O)c4ccccc34)cc2C(=O)N(C)c2cccnc21 (stereo not drawn) [Entry 1042] | 100 to 1000 | > 1000 | < 100 | > 1000 | < 100 | < 100 |  |  |  |  |  |  |  |  |  | 
CCN1c2ncc(CCOc3ccc(CC(C)C(=O)O)c4ccccc34)cc2C(=O)N(C)c2ccc(Cl)nc21 (stereo not drawn) [Entry 1044] | 100 to 1000 | > 1000 | < 100 | > 1000 | < 100 | < 100 |  |  |  |  |  |  |  |  |  | 
CCN1c2ncc(CCOc3ccc(/C(C)=C/C(=O)O)c4ccccc34)cc2C(=O)N(C)c2cccnc21 [Entry 1048] | 100 to 1000 | > 1000 | < 100 | > 1000 | < 100 | < 100 |  |  |  |  |  |  |  |  |  | 
C=C(CC(=O)O)c1ccc(OCCc2cnc3c(c2)C(=O)N(C)c2cccnc2N3CC)c2ccccc12 [Entry 1049] | 100 to 1000 | > 1000 | < 100 | > 1000 | < 100 | 100 to 1000 |  |  |  |  |  |  |  |  |  | 
CCN1c2ncc(CCOc3ccc(C4CC4C(=O)O)c4ccccc34)cc2C(=O)N(C)c2ccc(F)nc21 (stereo not drawn) [Entry 1050] | 100 to 1000 | 100 to 1000 | < 100 | 100 to 1000 | < 100 | 100 to 1000 |  |  |  |  |  |  |  |  |  | 
CCN1c2ncc(CCOc3ccc(C(C)CC(=O)O)c4ccccc34)cc2C(=O)N(C)c2cccnc21 (stereo not drawn) [Entry 1051] | 100 to 1000 | > 1000 | < 100 | > 1000 | < 100 | < 100 |  |  |  |  |  |  |  |  |  | 
CCN1c2ncc(CCOc3ccc(NC(=O)CCC(=O)O)c4ccccc34)cc2C(=O)N(C)c2cccnc21 [Entry 2006] |  |  |  |  |  |  | 100 to 1000 | > 1000 | < 100 | > 1000 | < 100 | 100 to 1000 |  |  |  | 
CCN1c2ncc(CCOc3cccc4c(S(=O)(=O)NCC(=O)O)cccc34)cc2C(=O)N(C)c2cccnc21 [Entry 2008] | < 100 | 100 to 1000 | < 100 | 100 to 1000 | 100 to 1000 | 100 to 1000 |  |  |  |  |  |  |  |  |  | 
CCN1c2ncc(CCOc3ccc(/C=C/C(=O)O)c4ccccc34)cc2C(=O)N(C)c2ccc(F)nc21 [Entry 2014] |  |  |  | > 1000 |  |  |  | 100 to 1000 |  |  |  |  | 100 to 1000 | < 100 | < 100 | 100 to 1000

— patent publication US6673791B2, “Non-nucleoside reverse transcriptase inhibitors” (Boehringer Ingelheim (Canada) Ltd., priority 2001, dated 2004)
